Test results: patent US9499495B2, “Quinazolines and azaquinazolines as dual inhibitors of RAS/RAF/MEK/ERK and PI3K/AKT/PTEN/mTOR pathways” (Asana Biosciences, LLC, priority 2013, dated 2016)

Columns and labels:
[1] = biological target: T1, B-RAFV600E (Homo sapiens, UniProt P15056, V600E); test: B-RAFV600E radiometric assay; assay type: biochemical; details: read-out: Kinase assay B-Raf
T1 construct: purchased Millipore, USA 14-557
Summary of the method: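 B-RAFV600E was preincubated 45 min at rt with compound in 1% DMSO. MEK-K97M (0.5 μg), 5 μM final cold ATP and [γ-32P]ATP were then added for 2 h at rt. Phosphorylated MEK was captured on P81 paper and scintillation-counted; IC50 came from a sigmoidal dose-response fit.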

[2] = biological target: T2, mTOR kinase (Homo sapiens, UniProt P42345); test: mTOR kinase TR-FRET assay; assay type: biochemical
T2 construct: purchased Millipore, US
Summary of the method: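 TR-FRET with ULight-p70 S6K (Thr 389) peptide (50 nM) and 20 μM ATP in 50 mM HEPES pH 7.5, 1 mM EGTA, 3 mM MnCl2; compound pre-incubated with enzyme before substrate addition, reaction at rt, EDTA-stopped. Eu anti-phospho antibody read 665/615 nm; IC50 from sigmoidal dose-response fit.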

[3] = test system: pERK in A375 cells; test: In Cell Western (ICW) assay, pERK in A375 cells; assay type: cell-based; details: Homo sapiens, A-375, 3 h treatment
Protocol: Cell lines A375, A2058 and RKO obtained from the ATCC as provided above, were grown, and after attaining ˜80% confluency were trypsinized, centrifuged and resuspended in fresh media. The cells were seeded at the specified density (20,000 to 50,000) in a 96-well format black-well clear bottom plate (Corning) and incubated overnight at 37° C. in a 5% CO2 incubator. The next day, compound dilutions of test compounds were prepared in 100% DMSO followed by dilutions in respective media. Treatment of test compounds was performed for 3 h at 37° C. in 5% CO2 incubator. Following 3 h drug treatment, the conditional media was discarded and the cells were washed once with cPBS (PBS containing 0.1% magnesium chloride hexahydrate and 0.1% anhydrous calcium chloride) and fixed with 4% paraformaldehyde in cPBS for 1 h at rt. After fixing, the cells were given three washes using cPBST (cPBS containing 0.1% Triton™ X-100 reagent) and then blocked using blocking solution (5% skimmed milk powder or 5% BSA prepared in cPBST) for 2 h at rt with shaking at 300 rpm. The cells were again washed thrice with cPBST and incubated with primary antibody phospho-p44/42 MAPK(Erk1/2)(Thr202/204) antibody (Cell Signaling, Catalog # 9101L), phospho S6 ribosomal protein (Cell Signaling, Catalog #4858L), phospho AKT (Thr 308) (Cell Signaling, Catalog #9275) or phospho AKT (Ser 473) (Cell Signaling, Catalog #4060L) in specified dilutions (1:500-1:2500), prepared in respective blocking solutions, in a racker overnight at 4° C. The next day, the cells were washed with 1× Delfia® wash buffer (4×1 wash) and incubated with secondary antibody (Delfia®-Eu-N1 labeled anti-rabbit antibody; PerkinElmer, Catalog #AD0105; dilutions: 1:2000 to 1:6000 in Delfia® assay buffer (PerkinElmer, Catalog #1244-111)) for 2 h at rt in the dark at 300 rpm. The cells were then given four washes with 1× Delfia® wash buffer and incubated with Wallac Delfia® Enhancement solution (100 μL; PerkinElmer, Catalog #1244-105) for 20 min at rt in the dark at 300 rpm. The fluorescence emission was then read at 615 nm with an excitation wavelength of 340 nm using a Victor V5 Fluorometer (Perkin Elmer, US). The cells were then washed once with 1×cPBS and incubated with 100 μL of 0.5 mg/mL of Hoechst 33258 dye prepared in cPBS and read at 460 nm with 355 nm excitation, thereby evaluating the correction factor.
The % inhibition for the test compounds of formula (I) (new chemical entities (NCEs)) was calculated keeping DMSO control as 0% and the IC50 values were determined using sigmoidal dose response curve fit in GraphPad Prism® v5 software.

[4] = test system: A375 cells; test: XTT assay for cell viability, A375 cells; assay type: cell-based; details: Homo sapiens, A-375, 72 h
Protocol: Cell lines (A375 ATCC No. CRL-1619, A2058 ATCC No. CRL-11147 and RKO ATCC No. CRL-2577, American Type Culture Collection (ATCC), Manassas Va.) once attaining ˜80% confluency were trypsinized, centrifuged and resuspended in fresh media. Cells (1000-2000/per well) were seeded in 96-well plate and incubated over-night at 37° C. in a 5% CO2 incubator. Compound dilutions were prepared in 100% DMSO followed by dilutions in the respective media. The cells were treated with NCEs for 72 h at 37° C. in 5% CO2 incubator. After 72 h, freshly prepared XTT (1 mg/ml)/PMS (25 μM) solution was added, incubated for 2 to 3 h at 37° C. and the absorbance was measured at 450 nm using an ELISA plate reader. Keeping DMSO control as 100%, the effect of the compound to inhibit the cell proliferation was calculated and the GI50 values were determined using sigmoidal dose response curve fit in GraphPad Prism® v5 software.

T2 sequence (P42345 1362-2549 limits assumed): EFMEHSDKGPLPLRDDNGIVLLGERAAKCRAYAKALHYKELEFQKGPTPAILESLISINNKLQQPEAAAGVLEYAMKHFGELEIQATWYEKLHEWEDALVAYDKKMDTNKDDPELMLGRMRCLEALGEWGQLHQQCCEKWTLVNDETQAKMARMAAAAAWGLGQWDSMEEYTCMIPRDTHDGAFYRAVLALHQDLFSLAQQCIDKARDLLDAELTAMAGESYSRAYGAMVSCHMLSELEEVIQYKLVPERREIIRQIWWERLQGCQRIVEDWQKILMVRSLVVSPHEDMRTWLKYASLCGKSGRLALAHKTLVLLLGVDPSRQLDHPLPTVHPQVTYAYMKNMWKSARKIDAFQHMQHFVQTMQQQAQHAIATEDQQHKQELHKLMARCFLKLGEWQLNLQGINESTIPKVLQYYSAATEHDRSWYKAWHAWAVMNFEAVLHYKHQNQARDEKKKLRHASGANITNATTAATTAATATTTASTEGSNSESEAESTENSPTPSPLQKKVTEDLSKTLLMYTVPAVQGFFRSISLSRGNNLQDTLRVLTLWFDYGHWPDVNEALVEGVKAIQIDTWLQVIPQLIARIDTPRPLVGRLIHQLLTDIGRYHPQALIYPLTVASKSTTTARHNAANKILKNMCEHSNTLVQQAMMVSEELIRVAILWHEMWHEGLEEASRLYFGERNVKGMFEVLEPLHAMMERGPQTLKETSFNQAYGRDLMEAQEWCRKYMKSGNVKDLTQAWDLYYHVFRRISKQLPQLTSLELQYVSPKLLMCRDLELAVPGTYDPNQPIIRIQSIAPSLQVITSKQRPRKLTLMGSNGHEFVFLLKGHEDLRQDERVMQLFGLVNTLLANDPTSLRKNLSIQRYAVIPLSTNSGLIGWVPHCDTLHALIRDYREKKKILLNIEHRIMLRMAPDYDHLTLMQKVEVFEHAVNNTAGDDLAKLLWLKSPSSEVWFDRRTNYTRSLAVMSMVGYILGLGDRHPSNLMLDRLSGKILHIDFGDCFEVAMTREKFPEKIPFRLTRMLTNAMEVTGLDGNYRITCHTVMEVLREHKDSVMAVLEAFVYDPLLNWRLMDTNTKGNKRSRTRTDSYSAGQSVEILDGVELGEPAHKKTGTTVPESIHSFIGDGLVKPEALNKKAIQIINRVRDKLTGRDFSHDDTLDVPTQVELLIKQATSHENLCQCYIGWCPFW
T1 sequence (P15056 416-766 V600E limits assumed): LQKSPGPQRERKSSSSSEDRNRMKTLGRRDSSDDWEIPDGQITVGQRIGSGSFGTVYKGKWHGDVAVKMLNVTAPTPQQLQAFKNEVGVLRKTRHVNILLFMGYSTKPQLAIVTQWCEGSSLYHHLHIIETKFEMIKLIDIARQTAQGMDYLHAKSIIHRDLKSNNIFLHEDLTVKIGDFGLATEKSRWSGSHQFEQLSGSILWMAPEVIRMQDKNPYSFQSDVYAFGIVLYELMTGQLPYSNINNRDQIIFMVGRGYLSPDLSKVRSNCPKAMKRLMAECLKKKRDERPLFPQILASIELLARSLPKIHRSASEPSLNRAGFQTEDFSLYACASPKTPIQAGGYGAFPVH

SMILES	IC50 [1] [nM]	IC50 [2] [nM]	IC50 [3] [nM]	IC50 [4] [nM]
COc1cc(-c2cccc(NS(=O)(=O)CCCF)c2F)cc2c(N3CCOCC3)nc(-c3cnc(N)nc3)nc12 [Example 27, N-(3-(2-(2-aminopyrimidin-5-yl)-8-methoxy-4-morpholinoquinazolin-6-yl)-2-fluorophenyl)-3-fluoropropane-1-sulfonamide]	1 to 100	100 to 1000	1 to 100	100 to 1000
COc1cc(-c2cccc(NS(=O)(=O)c3cc(F)ccc3F)c2F)cc2c(N3CCOCC3)nc(-c3ccc(N)nc3)nc12 [Example 28, N-(3-(2-(6-aminopyridin-3-yl)-8-methoxy-4-morpholinoquinazolin-6-yl)-2-fluorophenyl)-2,5-difluorobenzenesulfonamide]	1 to 100	100 to 1000	1 to 100	100 to 1000
COc1cc(-c2cccc(NS(=O)(=O)c3ccccc3F)c2F)cc2c(N3CCOCC3)nc(-c3ccc(N)nc3)nc12 [Example 29, N-(3-(2-(6-aminopyridin-3-yl)-8-methoxy-4-morpholinoquinazolin-6-yl)-2-fluorophenyl)-2-fluorobenzenesulfonamide]	1 to 100	100 to 1000	1 to 100	100 to 1000
COc1cc(-c2cccc(NS(=O)(=O)C(C)C)c2F)cc2c(N3CCOCC3)nc(-c3ccc(N)nc3)nc12 [Example 33, N-(3-(2-(6-aminopyridin-3-yl)-8-methoxy-4-morpholinoquinazolin-6-yl)-2-fluorophenyl)propane-2-sulfonamide]	100 to 1000	100 to 1000	100 to 1000	100 to 1000
COc1cc(-c2cccc(NS(=O)(=O)c3cccs3)c2F)cc2c(N3CCOCC3)nc(-c3ccc(N)nc3)nc12 [Example 38, N-(3-(2-(6-aminopyridin-3-yl)-8-methoxy-4-morpholinoquinazolin-6-yl)-2-fluorophenyl)thiophene-2-sulfonamide]	1 to 100	100 to 1000	1 to 100	100 to 1000
COc1cc(-c2cccc(NS(=O)(=O)CCCF)c2F)cc2c(N3CCOC[C@@H]3C)nc(-c3ccc(N)nc3)nc12 [Example 41, (S)-N-(3-(2-(6-aminopyridin-3-yl)-8-methoxy-4-(3-methylmorpholino)quinazolin-6-yl)-2-fluorophenyl)-3-fluoropropane-1-sulfonamide]	1 to 100	1 to 100	1 to 100	100 to 1000
COc1cc(-c2cccc(NS(=O)(=O)CCCF)c2F)cc2c(N3CCOC[C@@H]3C)nc(-c3cnc(N)nc3)nc12 [Example 45, (S)-N-(3-(2-(2-aminopyrimidin-5-yl)-8-methoxy-4-(3-methylmorpholino)quinazolin-6-yl)-2-fluorophenyl)-3-fluoropropane-1-sulfonamide]	100 to 1000	100 to 1000	100 to 1000	100 to 1000
Nc1ccc(-c2nc(N3CCOCC3)c3cc(-c4cccc(NS(=O)(=O)CCCF)c4F)ccc3n2)cn1 [Example 46, N-(3-(2-(6-aminopyridin-3-yl)-4-morpholinoquinazolin-6-yl)-2-fluorophenyl)-3-fluoropropane-1-sulfonamide]	1 to 100	100 to 1000	1 to 100	100 to 1000

Results, then the compound that gave them:

IC50 [1] [nM]	IC50 [2] [nM]	IC50 [3] [nM]	IC50 [4] [nM]	SMILES
1 to 100	100 to 1000	100 to 1000	100 to 1000	COc1cc(-c2cccc(NS(=O)(=O)c3ccccc3F)c2F)cc2c(N3CCOCC3)nc(-c3cnc(N)nc3)nc12 [Example 47, N-(3-(2-(2-aminopyrimidin-5-yl)-8-methoxy-4-morpholinoquinazolin-6-yl)-2-fluorophenyl)-2-fluorobenzenesulfonamide]
1 to 100	100 to 1000	1 to 100	100 to 1000	CCOc1cc(-c2cccc(NS(=O)(=O)CCCF)c2F)cc2c(N3CCOCC3)nc(-c3cnc(N)nc3)nc12 [Example 54, N-(3-(2-(2-aminopyrimidin-5-yl)-8-ethoxy-4-morpholinoquinazolin-6-yl)-2-fluorophenyl)-3-fluoropropane-1-sulfonamide]
1 to 100	1 to 100	1000 to 10000	1000 to 10000	NC(=O)COc1cc(-c2cccc(NS(=O)(=O)CCCF)c2F)cc2c(N3CCOCC3)nc(-c3ccc(N)nc3)nc12 [Example 60, 2-((2-(6-aminopyridin-3-yl)-6-(2-fluoro-3-(3-fluoropropylsulfonamido)phenyl)-4-morpholino-quinazolin-8-yl)oxy)acetamide]
1 to 100	100 to 1000	100 to 1000	1 to 100	Nc1ccc(-c2nc(N3CCOCC3)c3cc(-c4cccc(NS(=O)(=O)CCCF)c4F)cc(N4CCCC4)c3n2)cn1 [Example 70, N-(3-(2-(6-aminopyridin-3-yl)-4-morpholino-8-(pyrrolidin-1-yl)quinazolin-6-yl)-2-fluorophenyl)-3-fluoropropane-1-sulfonamide]
100 to 1000	1 to 100	1 to 100	100 to 1000	Nc1ncc(-c2nc(N3CCOCC3)c3cc(-c4cccc(NS(=O)(=O)CCCF)c4F)cc(N4CCCC4)c3n2)cn1 [Example 71, N-(3-(2-(2-aminopyrimidin-5-yl)-4-morphollno-8-(pyrrolidin-1-yl)quinazolin-6-yl)-2-fluorophenyl)-3-fluoropropane-1-sulfonamide]
1 to 100	1 to 100	1 to 100	100 to 1000	CCCS(=O)(=O)Nc1ccc(F)c(-c2cc(OC)c3nc(-c4ccc(N)nc4)nc(N4CCOCC4)c3c2)c1F [Example 75, N-(3-(2-(6-aminopyridin-3-yl)-8-methoxy-4-morpholinoquinazolin-6-yl)-2,4-difluorophenyl)propane-1-sulfonamide]
1 to 100	100 to 1000	100 to 1000	100 to 1000	COc1cc(-c2c(F)ccc(NS(=O)(=O)c3c(F)cccc3F)c2F)cc2c(N3CCOCC3)nc(-c3cnc(N)nc3)nc12 [Example 76, N-(3-(2-(2-aminopyrimidin-5-yl)-8-methoxy-4-morpholinoquinazolin-6-yl)-2,4-difluorophenyl)-2,6-difluorobenzenesulfonamide]
1 to 100	100 to 1000	100 to 1000	100 to 1000	COc1cc(-c2c(F)ccc(NS(=O)(=O)c3c(F)cccc3F)c2F)cc2c(N3CCOCC3)nc(-c3ccc(N)nc3)nc12 [Example 77, N-(3-(2-(6-aminopyridin-3-yl)-8-methoxy-4-morpholinoquinazolin-6-yl)-2,4-difluorophenyl)-2,6-difluorobenzenesulfonamide]
1 to 100	100 to 1000	1 to 100	100 to 1000	COc1cc(-c2c(F)ccc(NS(=O)(=O)c3cc(F)ccc3F)c2F)cc2c(N3CCOCC3)nc(-c3ccc(N)nc3)nc12 [Example 78, N-(3-(2-(6-aminopyridin-3-yl)-8-methoxy-4-morpholinoquinazolin-6-yl)-2,4-difluorophenyl)-2,5-difluorobenzenesulfonamide]
